Assay results taken from US10980819B2, “High concentration formulation” (Cassiopea S.P.A., priority 2015, dated 2021).
Like-named read-outs stand apart in the source and are kept apart here. One block for each molecule: values may come before it.

Experiments:
[1] = Clinical evaluation, excretion parameters at 1st and 55th application (Example 6); assay type: in vivo, human; details: for Analyte Excreted, Free / Analyte Excreted, Total: formulation of Example 4b on scalp
Experimental: The formulation described in Example 4b was studied in a clinical trial to evaluate its pharmacokinetic profile, safety, and tolerability. According to the study protocol, 1 ml of the formulation (corresponding to 50 mg of cortexolone-17α-propionate) was applied once a day on study day 1 and then twice daily thereafter on study days 2-28 to the areas of the scalp suffering from alopecia. Statistical analyses were performed using SAS® version 9.1.3, service pack 4 for Windows and Phoenix WinNonLin 6.3, Pharsight Corporation, USA.

[2] = Evaluation of cortexolone-17α-propionate solubility (Example 1); assay type: physicochemical; details: 5 g in 100 ml
Experimental: 5 g of cortexolone-17α-propionate was added to 100 ml of each of the solvents or solvent mixtures shown in Table 1, below, in an effort to produce a 5% w/v solution of cortexolone-17α-propionate. In the examples in Table 1, ethanol refers to ethanol 96°.

[3] = Franz cell diffusion test 1 (Example 7); assay type: in vitro ADME; details: for Permeation rate / Skin concentration: 48 h, saturated solution, 300 mg on 2.54 cm^2 skin, 32° C.
Experimental: In an in vitro study, the skin penetration potential of cortexolone-17α-propionate was compared to cyproterone acetate using a standard Franz cell. According to the protocol, 300 mg of each test formulations was applied as saturated solution with a concentration ranging from 0.7 to 1 weight (w/w) to 2.54 cm^2 of exposed skin area. The receptor chamber volume ranged from 4.75 ml to 6.4 ml of phosphate buffered saline/fetal calf serum (2:1) containing penicillin/streptomycin according to standard protocol, and was maintained at a temperature of 32° C.+/−1° C. Stirring was maintained at 300 rpm.
The experiments were conducted for 48 h in triplicate. 100 μl fractions were withdrawn at 5-7 time points during the 48 h test period. After withdrawing a 100 μl fraction for analysis, it was replaced with fresh receiver fluid in an equal volume. At the end of the experiment, the skin was taken from the Franz cells and the skin's stratum corneum was removed by tape stripping (20×) with transparent adhesive tape (Koren, Spain).
The strippings were analyzed by dissolution in a mixture of propylene glycol:oeyl alcohol 9:1. The resulting mixture was analyzed for concentration of cyproterone acetate and cortexolone-17α-propionate, with the results provided in Table 12, below.

[4] = tested on: AGA; experiment: Finasteride 1 mg tablets phase III clinical studies 087 and 089, published by the FDA (Example 11); assay type: in vivo, human; details: original value divided by 5.1
Experimental: Based on the results of finasteride 1 mg tablets (PROPECIA®) described in the two Phase III clinical studies published online by the United States Food and Drug Administration (the FDA), it can be concluded that the mean change from baseline in non-vellus TAHC at month 6 for cortexolone-17α-propionate solution 5% (according to Example 4b), as reported in Example 9, is very similar to the mean change from baseline in non-vellus TAHC at month 6 observed in 2 phase III clinical trials on finasteride 1 mg tablets (tradename Propecia®) per os once daily. Table 20 below reports the change from baseline in TAHC at month 6 in the two finasteride studies (data of active finasteride groups) as described in the NDA for PROPECIA® published online by the FDA:
In the two finasteride studies, the target area was a 1-inch diameter circle, which corresponds to 5.1 cm^2. In order to compare the changes from baseline in TAHC at month 6 obtained in the finasteride studies and the change from baseline in TAHC at month 6 obtained with cortexolone-17α-propionate in the study of the present Example 9 (where the target area was 1 cm^2), the original finasteride data have been recalculated to take into account the differences between the total surfaces of the target areas (i.e., the values were divided by 5.1) as shown in Table 21.

[5] = PROPECIA package insert; 1 mg tablets; cited from earlier work
[6] = tested on: serum DHT as well as scalp DHT; details: single oral administration of finasteride 1 mg; cited from earlier work
[7] = tested on: AGA; details: cited from earlier work
[8] = 1st Application (Day 1), N = 18
[9] = 55th Application (Day 28), N = 17

- Analyte Excreted, Free [1, 8]: BLQL
- Analyte Excreted, Total [1, 8]: 0.06 ± 0.26 µg
- Analyte Excreted, Free [1, 9]: BLQL
- Analyte Excreted, Total [1, 9]: 0.64 ± 0.74 µg
Compound: C[C@]12CCC(=O)C=C1CC[C@@H]1[C@@H]2CC[C@@]2(C)[C@H]1CC[C@]2(O)C(=O)CO [Cortexolone, cortexolone]

- Cortexolone-17α-propionate Solubility at Room Temperature ([2]; Caprylocaproyl polyoxyl-8 glycerides NF (LABRASOL ®)): Sparingly soluble
- Cortexolone-17α-propionate Solubility at Room Temperature ([2]; Ethanol (96°)): Highly soluble
- Cortexolone-17α-propionate Solubility at Room Temperature ([2]; Ethanol/propylene glycol (1:1) v:v): Soluble
- Cortexolone-17α-propionate Solubility at Room Temperature ([2]; Ethanol/propylene glycol/TRANSCUTOL ® (1:1:1) v:v): Very soluble
- Cortexolone-17α-propionate Solubility at Room Temperature ([2]; Isopropyl myristate): Insoluble
- Cortexolone-17α-propionate Solubility at Room Temperature ([2]; Isopropyl palmitate): Insoluble
- Cortexolone-17α-propionate Solubility at Room Temperature ([2]; Propylene glycol): Sparingly soluble
- Cortexolone-17α-propionate Solubility at Room Temperature ([2]; TRANSCUTOL ®/water (1:1) v:v): Insoluble
- Cortexolone-17α-propionate Solubility at Room Temperature ([2]; TRANSCUTOL ®/water/ethanol (1:1:1) v:v): Soluble
- Cortexolone-17α-propionate Solubility at Room Temperature ([2]; TRANSCUTOL ®): Very soluble
- Cortexolone-17α-propionate Solubility at Room Temperature ([2]; Water/propylene glycol/TRANSCUTOL ® (1:1:1) v:v): Insoluble
- Cortexolone-17α-propionate Solubility at Room Temperature ([2]; Water/propylene glycol/TRANSCUTOL ® (1:1:2) v:v): Soluble
- Cortexolone-17α-propionate Solubility at Room Temperature ([2]; Water): Insoluble
- Permeation rate [3]: 1410 ± 137 ng/mL/h
- Skin concentration [3]: 231 ± 19 µg/g
- permeates skin, times as much as cyproterone acetate ([3]; versus cyproterone acetate): about 3 times
- permeation rate, times greater than cyproterone acetate ([3]; versus cyproterone acetate): about 10 times
- % Excreted, Free [1, 8]: 0 ± 0%
- % Excreted, Total [1, 8]: 0.25 ± 0.10%
- Analyte Excreted, Free [1, 8]: 0.16 ± 0.34 µg
- Analyte Excreted, Total [1, 8]: 126.37 ± 48.99 µg
- Analyte Excreted, Free [1, 9]: 2.72 ± 1.54 µg
- Analyte Excreted, Total [1, 9]: 429.53 ± 178.24 µg
Compound: CCC(=O)O[C@]1(C(=O)CO)CC[C@H]2[C@@H]3CCC4=CC(=O)CC[C@]4(C)[C@H]3CC[C@@]21C [Cortexolone-17α-propionate, 17α-propionyloxy-21-hydroxy-pregna-4-ene-3,20-dione]

Compound: CC(C)(C)NC(=O)[C@H]1CC[C@H]2[C@@H]3CC[C@H]4NC(=O)C=C[C@]4(C)[C@H]3CC[C@]12C [finasteride]
- Change from Baseline in non-vellus TAHC at Month 6, recalculated over a target area of 1 cm^2 ([4]; Combined (study 087 + 089)): 12.2
- Change from Baseline in non-vellus TAHC at Month 6, recalculated over a target area of 1 cm^2 ([4]; Study 087): 13.6
- Change from Baseline in non-vellus TAHC at Month 6, recalculated over a target area of 1 cm^2 ([4]; Study 089): 11.5
- patients with adverse events (decreased libido, erectile dysfunction, ejaculation disorders, decreased volume of ejaculate) [5]: 1%
- decrease of serum DHT as well as scalp DHT compared to baseline [6]: up to 70%
- Change from Baseline in non-vellus TAHC at Month 6 ([7]; Combined (study 087 + 089), target area 5.1 cm^2): 62.4
- Change from Baseline in non-vellus TAHC at Month 6 ([7]; Study 087, target area 1-inch diameter circle, 5.1 cm^2, 1 mg per os once daily): 69.5
- Change from Baseline in non-vellus TAHC at Month 6 ([7]; Study 089, target area 1-inch diameter circle, 5.1 cm^2, 1 mg per os once daily): 58.4

- Permeation rate [3]: 141 ± 17 ng/mL/h
- Skin concentration [3]: 89.4 ± 4.6 µg/g
Compound: CC(=O)O[C@]1(C(C)=O)CC[C@H]2[C@@H]3C=C(Cl)C4=CC(=O)[C@@H]5C[C@@H]5[C@]4(C)[C@H]3CC[C@@]21C [Cyproterone Acetate, cyproterone acetate, reference compound]
